The text below walks through data of ChEMBL document CHEMBL1131393, “C32-O-imidazol-2-yl-methyl ether derivatives of the immunosuppressant ascomycin with improved therapeutic potential” (Bioorg Med Chem Lett, 1998).

For data set [1], the target named is Peptidyl-prolyl cis-trans isomerase FKBP1A (Homo sapiens, UniProt P62942). In words: Binding affinity for FK506 binding protein 12 using [3H]-dihydro FK-506 radioligand was determined.
The nature of data set [2]: Therapeutic index was determined as mouse hypothermia ED50/murine ex vivo ED50. The settings on record: read-out: Therapeutic index.
For data set [3], the system named is Mus musculus. In words: Neurotoxic activity was determined by measuring compound-induced hypothermia in BALB/c mice, after administering intravenously in mouse. The settings on record: iv. The format is functional.
Data set [4] deals with Rattus norvegicus. Description: Nephrotoxic potential was tested in spontaneously hypertensive rats by administering 20 mg/kg/day intraperitoneally for 5 days. The format is functional. The settings on record: route intraperitoneal.
For data set [5], the system named is Rattus norvegicus. In words: Nephrotoxic potential was tested in spontaneously hypertensive rats by administering 10 mg/kg/day intraperitoneally for 5 days. The format is functional. The settings on record: route intraperitoneal.
The test system of data set [6] is Mus musculus. Description: Immunosuppressive activity was determined by ex vivo murine-based model of immunosuppression, compound was administered perorally in mouse. The settings on record: po. The format is functional.
Data set [7] concerns Rattus norvegicus. Description: Nephrotoxic potential was tested in spontaneously hypertensive rats by administering 0 mg/kg/day intraperitoneally for 5 days. The format is functional. The settings on record: route intraperitoneal.
Data set [8] concerns Rattus norvegicus. In words: Nephrotoxic potential was tested in spontaneously hypertensive rats by administering 40 mg/kg/day intraperitoneally for 5 days. The format is functional. The settings on record: route intraperitoneal.
The test system of data set [9] is Mus musculus. In words: Immunosuppressive activity was determined by ex vivo murine-based model of immunosuppression, compound was administered intravenously in mouse. The format is functional. The settings on record: iv.

pEC50: −log10 of the molar value.

Sequence of Peptidyl-prolyl cis-trans isomerase FKBP1A (P62942 whole entry): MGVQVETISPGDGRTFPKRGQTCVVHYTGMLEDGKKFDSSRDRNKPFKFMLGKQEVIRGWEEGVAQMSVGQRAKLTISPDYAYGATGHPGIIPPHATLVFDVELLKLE

Turning to `CC[C@@H]1/C=C(\C)C[C@H](C)C[C@H](OC)[C@H]2O[C@@](O)(C(=O)C(=O)N3CCCC[C@H]3C(=O)O[C@H](/C(C)=C/[C@@H]3CC[C@@H](OCc4nc(-c5ccccc5)c[nH]4)[C@H](OC)C3)[C@H](C)[C@@H](O)CC1=O)[C@H](C)C[C@@H]2OC`, in data set [1], the pEC50 is 7.66.
The same measure, in the same setting: to `CC[C@@H]1/C=C(\C)C[C@H](C)C[C@H](OC)[C@H]2O[C@@](O)(C(=O)C(=O)N3CCCC[C@H]3C(=O)O[C@H](/C(C)=C/[C@@H]3CC[C@@H](OCOCc4ccccc4)[C@H](OC)C3)[C@H](C)[C@@H](O)CC1=O)[C@H](C)C[C@@H]2OC` belongs 7.92; to `CC[C@@H]1/C=C(\C)C[C@H](C)C[C@H](OC)[C@H]2O[C@@](O)(C(=O)C(=O)N3CCCC[C@H]3C(=O)O[C@H](/C(C)=C/[C@@H]3CC[C@@H](OCc4nccn4Cc4ccccc4)[C@H](OC)C3)[C@H](C)[C@@H](O)CC1=O)[C@H](C)C[C@@H]2OC`, 8.13; to `CC[C@@H]1/C=C(\C)C[C@H](C)C[C@H](OC)[C@H]2O[C@@](O)(C(=O)C(=O)N3CCCC[C@H]3C(=O)O[C@H](/C(C)=C/[C@@H]3CC[C@@H](OC/C=C/c4ccccc4)[C@H](OC)C3)[C@H](C)[C@@H](O)CC1=O)[C@H](C)C[C@@H]2OC`, 7.52.
With `C=CC[C@@H]1/C=C(\C)C[C@H](C)C[C@H](OC)[C@H]2O[C@@](O)(C(=O)C(=O)N3CCCC[C@H]3C(=O)O[C@H](/C(C)=C/[C@@H]3CC[C@@H](O)[C@H](OC)C3)[C@H](C)[C@@H](O)CC1=O)[C@H](C)C[C@@H]2OC` [TACROLIMUS ANHYDROUS], the selectivity ratio in [2] was 15. Also, the ED50 with Mus musculus [3] turned out to be 3.5 mg/kg; in the data set with Mus musculus [6], 2.6 mg/kg; in the data set on Mus musculus [9], 0.24 mg/kg. For the same compound, the BUN in the data set with Rattus norvegicus [4] is 43 mg/dL; in the data set on Rattus norvegicus [5], 22 mg/dL; with Rattus norvegicus [7], 20 mg/dL; with Rattus norvegicus [8], 76 mg/dL.
